# Reference: US20230276804A1, “A PESTICIDALLY ACTIVE MIXTURE COMPRISING PYRAZOLOPYRIDINE ANTHRANILAMIDE COMPOUND, OXIDES OR SALTS THEREOF” (priority 2020, published 2023)
# What was measured:
# Format in all cases: in vivo
# Helicoverpa armigera = assay: Diet incorporation method against Helicoverpa armigera (Example A); conditions: single compound, 0.2 ppm, 96 h
# Description: The diet incorporation method was used, in which semi-synthetic diet was incorporated into the test solutions consisting either of the single compounds or respective compound combinations, when the temperature was approximately 50° C. in the bio-assay containers, then stirred thoroughly for proper mixing and allowed to cool for 30 min. The solidified diet was cut into equal pieces, and then each piece was transferred into one cell of a bio-assay tray. A single starved third instar larva was released into each of these cells of the bio-assay trays and the tray was covered with a lid. The bio-assay trays were kept under laboratory conditions at a temperature of 25° C. and relative humidity of 70%. Observations on dead, moribund and live larvae were recorded 96 h after the release of the larvae. Percent mortality was calculated by combining dead and moribund larvae and comparing the result to the one of the untreated control. The results are shown for the compound of formula (I-III) in Table A.
# Plutella xylostella = assay: Leaf dip method (cabbage leaves) with Bacillus thuringiensis against Plutella xylostella (Example F); conditions: single, 0.1 ppm, 72 h
# Description: The leaf dip method was used, wherein the required quantity of the compounds were weighed and dissolved in a test solution prepared in tubes. The tubes were put on a vortex at 2000 rpm for 90 min for proper mixing and then, for the single compounds, diluted with a 0.01% Triton-X solution, for the combinations, diluted with a 0.01% Triton-X solution containing formulated Bt, to get the desired test concentration. Cabbage leaves were dipped in the solution for 10 seconds, shade dried for 20 min and then transferred to single cells of bioassay trays. A single second instar larva was released into each cell and the tray was covered with a lid. The bio-assay trays were kept under laboratory conditions at a temperature of 25° C. and relative humidity of 70%. Observations on dead, moribund and live larvae were recorded 72 h after the release. Percent mortality was calculated by combining dead and moribund larvae and comparing the results to the one of the untreated control. The results have been described for compound of formula (I-III) in Table F.
# Phakopsora pachyrhizi = assay: Preventive glasshouse test against Phakopsora pachyrhizi in soybean (Example H); conditions: single compound
# Description: The single compounds or the respective compound combinations were dissolved in 2% dimethyl sulfoxide/acetone and then mixed with water containing an emulsifier to a calibrated spray volume of 50 ml. The test solutions were poured into spray bottles for further applications.
# To test the preventive activity of compounds, healthy young Soybean plants, raised in the greenhouse, were sprayed with the active compound preparation at the stated application rates inside the spray cabinets using hollow cone nozzles. One day after treatment, the plants were inoculated with a suspension containing 2×10^5 Phakopsora pachyrhizi conidia. The inoculated plants were then kept in a greenhouse chamber at a temperature of 22-24° C. and 80-90% relative humidity for disease expression.
# A visual assessment of the performance of the single compounds and respective compound combinations was carried out by rating the disease severity (0-100% scale) on treated plants 3, 7, 10 and 15 days after application. Efficacy (% control) of the compounds was calculated by comparing the disease rating in the treatment with the one of the untreated control. The compounds were also assessed for their plant compatibility by recording symptoms like necrosis, chlorosis and stunting. The results have been described for the compound of formula (I-III) in Table H.
# Septoria nodorum = assay: Preventive glasshouse test against Parastagonospora nodorum/Septoria nodorum/Stagnospora nodorum in wheat (Example J); conditions: single compound
# Description: The single compounds or respective compound combinations were dissolved in 2% dimethyl sulfoxide/acetone and then mixed with water containing emulsifier to a calibrated spray volume of 50 mL. The test solutions were poured into spray bottles for further applications.
# To test the preventive activity of compounds, healthy young wheat plants, raised in the greenhouse, were sprayed with the active compound preparation at the stated application rates inside the spray cabinets using hollow cone nozzles. One day after treatment, the plants were inoculated with a spore suspension containing 2.8×10^6 Stagnospora nodorum inoculum.
# The inoculated plants were then kept in a greenhouse chamber at 22-25° C. temperature and 90-100% relative humidity for disease expression.
# A visual assessment of the performance of the single compounds or compound combinations was carried out by rating the disease severity (0-100% scale) on treated plants 3, 7, 10 and 15 days after application. Efficacy (% control) of the single compounds and mixtures was calculated by comparing the disease rating in the treatment with the one of the untreated control. The compounds were also assessed for their plant compatibility by recording symptoms like necrosis, chlorosis and stunting. The results have been described for the compound of formula (I-III) in Table J.
substance,measurement,setting,value
"6-(3-bromo-1-(3-chloropyridin-2-yl)-1H-pyrazole-5-carboxamido)-N-isopropyl-5-methylpyrazolo[1,5-a]pyridine-7-carboxamide [Compound (I-III)]",Observed Efficacy (%),Helicoverpa armigera,12.5%
same,Observed Efficacy (%),Plutella xylostella,12.5%
same,Observed Efficacy (%),Phakopsora pachyrhizi; 100 ppm,25%
same,Observed Efficacy (%),Phakopsora pachyrhizi; 500 ppm,56%
same,Observed Efficacy (%),Septoria nodorum; 100 ppm,24%
same,Observed Efficacy (%),Septoria nodorum; 500 ppm,32%
